Consider 1 substance from US7504384B2 (priority 2000, dated 2009).

In the test the test system is Influenza A (H3N2 strain) virus. In kind it is cell-based, Influenza type A, A/Panama/2007/99 (H3N2).

“And” between values parts separate entries of the source, which are not always exact repeats. Equal entries are not always repeated.

As for “dipalmitoyl-phosphatidyl-ethanolamine conjugated to heparin [Compound XXIV]”, the “SI (IC50/EC50)” value is 2.9 and 2. The substance further came in with an EC50 (high concentration, Visual Observation Assay, Influenza A (H3N2 strain)) of 200 µg/mL.
